Measured values from patent US7033829B2, “Method to inhibit cell growth using oligonucleotides” (Trustees of Boston University, priority 2000, dated 2006).

Columns and labels:
LacZ reporter plasmid = test: UV-induced mutation frequency in LacZ transgenic mice; type: in vivo
From the text: Transgenic mice carrying multiple genomic copies of a LacZ reporter plasmid were used. One hundred μM pTpT in polypropyleneglycol was applied to one ear and vehicle alone to the other ear, daily for four days. On the fifth day, both ears were exposed to 100 mJ/cm^2 UVB light. This procedure was repeated weekly for 3, 5 or 7 weeks (3 mice/group). One week after the final irradiation, LacZ plasmids were harvested from the ear epidermis. Using methods well known in the art, the plasmids were recovered from genomic DNA by restriction enzyme digestion and specific binding to the LacI protein. Mutant LacZ plasmids were positively selected by transfection into bacteria and growth on selective medium and the mutation frequency was determined.

[1] = test system: GADD 45, ERCC 3 and SDI 1 mRNA; test: Northern blot of GADD 45, ERCC 3 and SDI 1 in SCC12F cells; type: cell-based, human; details: 100 μM; as early as 24 hours, several days
Method: Paired cultures of SCC12F cells were maintained in a Dulbecco's modified Eagle's Medium-based keratinocyte growth medium (DMEM; GIBCO/BRL, Gaithersburg, Md.) supplemented with 10% fetal calf serum (Hyclone Labs, Logan, Utah) and epidermal growth factor as described (Hollander, M. C. et al., J. Biol. Chem. 268:328–336 (1992)). Pre-confluent cultures were given fresh medium supplemented with either 100 μM T2, or an equal volume of diluent. Cells were collected daily after additions, and processed for total RNA isolation using the Tri-Reagent extraction method (Molecular Research Center, Cincinnati, Ohio) following the protocol of the manufacturer. Ten micrograms of RNA from each sample was gel electrophoresed, transferred to a nylon filter and probed as described previously (Nada, A. et al., Exp. Cell Res. 211:90–98 (1994)). The cDNA for GADD 45 was generated by PCR using primers based on the human GADD 45 gene sequence (Mitsudomi, T. et al., Oncogene 7:171–180 (1992)). The cDNA for ERCC 3 was purchased from the American Type Culture Collection (ATCC, Rockville, Md.). The SDI 1 cDNA was a gift of Dr. J. Smith and has been described previously (Walworth, N.C. and Bernards, R., Science 271:353–356 (1996)).

[2] = test system: p53-null H1299 lung carcinoma cells; test: Cell growth of p53-null H1299 cells; type: cell-based, human; details: 100 μM; days 1–4
From the text: Both the GADD 45 and SDI 1 genes are known to be transcriptionally regulated by the tumor suppressor protein p53. After UV- and γ-irradiation, as well as treatment of cells with DNA-damaging chemical agents, there is a rapid stabilization, phosphorylation and nuclear accumulation of p53 after which this protein binds to specific promoter consensus sequences and modulates the transcription of regulated genes. […] In order to determine whether the inhibitory effect of the dinucleotide pTpT on cell proliferation is mediated in part through p53, the growth response of a p53 null cell line, H1299 lung carcinoma cells, was examined. The p53-null H1299 cells (Sanchez, Y. et al., Science 271:357–360 (1996)) were maintained in DMEM with 10% calf serum. Preconfluent cultures were given fresh medium supplemented with either 100 μM pTpT or diluent. Cells were collected on consecutive days by trypsinization, and counted by Coulter™ counter.

thymidine dinucleotide [pTpT]
mutation frequency (LacZ reporter plasmid; 100 μM topical, weekly UVB, after 3 weeks (diluent 293)): 200 | lower mutation frequency than diluent treated skin (LacZ reporter plasmid; after 3, 5, and 7 weeks): 20–30% | mutation frequency (LacZ reporter plasmid; after 5 weeks (diluent 216)): 155 | mutation frequency (LacZ reporter plasmid; after 7 weeks (diluent 322)): 261 | mRNAs for GADD 45, ERCC 3 and SDI 1 [1]: up-regulated | proliferation compared to diluent-treated controls [2]: no inhibition of proliferation
